Reference: US20050130252A1, “Stabilized susceptibility tests of aerobic pathogens” (Wyeth Holdings Corporation, priority 2003, published 2005)

Assays:
H. influenzae ATCC 49247 = assay: Broth microdilution MIC; format: cell-based
Procedure: The process for preparing susceptibility test medium are the following steps: • a. Preparing Mueller Hinton Broth II medium by adding 22 grams powdered media to 1.0 liter distilled water; • b. Autoclaving (121° C., 15 psi, 15 minutes) and cooling the medium; • c. Adding Oxyrase® up to about 10% final volume and keeping at 35-37° C. in an incubator for 30 minutes; • d. Adding about 50 μL to each well of a 96 well microtiter plate; • e. Weighing drug and adding broth to drug to bring up to about (standard 128 μg/ml); • f. Adding 50 μL of the drug to the first column of the titer plate; • g. Diluting by two-fold serial diluting across or down the plate. • h. Preparing a Prompt™ inoculum at 10^8 CFU/ml; • i. Diluting inoculum 1:100 in the broth at […] in 9.9 ml (1:100) is 10^6 colony forming units (CFU) forming the adjusted inoculum; • j. Adding 50 μL of the adjusted inoculum to the wells of the microtiter plate; • k. Incubating the plates at 35-37° C. for 18-22 hours; and • l. Reading, with the unaided eye, the MIC.
The in vitro activities of tigecycline and control antibiotics were determined by the broth microdilution method as recommended by the NCCLS. (National Committee for Clinical Laboratory Standards, 2003. Methods for Dilution Antimicrobial Susceptibility Tests for Bacteria That Grow Aerobically; Approved Standards: M7-A6, Sixth ed, vol. 23., National Committee for Clinical Laboratory Standards Wayne, Pa.) was used for the standard procedures. […] Oxyrase® (Oxyrase Inc, Mansfield, Ohio) was used according to the manufacturer's instructions by adding 1 ml of Oxyrase® to 50 ml of media. Media age studies were performed by preparing MHB in multiple flasks, then storing the media under various conditions. MICs were usually performed in duplicate on each day of testing. Storage under anaerobic conditions was conducted in an anaerobic chamber (MACS MG 1000, Don Whitley Scientific LTD). The pH of the media was determined by pH meter (Corning 430). A comparison of the in vitro activity of tigecycline by agar and broth dilution methodolgies with and without Oxyrase® against clinical isolates is shown in Table 1.

[1] = HPLC analysis of early peak formation of tigecycline in water and MHB; format: physicochemical; details: stored overnight at RT
Procedure: To test the hypothesis, solutions of tigecycline were prepared in water, fresh MHB and aged MHB. The solutions were stored overnight at RT, then subjected to HPLC analysis to look for degradation of tigecycline. […] This confirmed that the formation of early peak of tigecycline was accelerated in the aged media.
In experiment 1 three experimental test samples were examined for early peak formation of tigecycline. In experiment 2 six experimental test samples were evaluated to determine the early peak of tigecycline which occurs in 24 hours. Results are as listed below:
Tigecycline at a concentration of 1 mg/mL in each of the above vehicles was prepared, assayed at time zero and 1 day @ RT.
The HPLC parameters are listed below: • HPLC column: Luna C18(2), 5 μm, 4.6×150 mm • Detection: UV @ 250 nm • Flow Rate: 1.5 mL/min • Injection volume=30 μL • Mobile Phase A: 6.8 g KH2PO4 in 950 mL water, pH to 6.2 with KOH, mixed with 50 mL acetonitrile • Mobile Phase B: 6.8 g KH2PO4 in 500 mL water, pH to 6.2 with KOH, mixed with 500 mL acetonitrile

[2] = Table 8, Mueller Hinton Broth + Oxyrase, n = 240
[3] = Table 8, Mueller Hinton Broth, n = 210

CN(C)c1cc(NC(=O)CNC(C)(C)C)c(O)c2c1C[C@H]1C[C@H]3[C@H](N(C)C)C(O)=C(C(N)=O)C(=O)[C@@]3(O)C(O)=C1C2=O [Tigecycline, tigecycline]
Number of Occurrences of MIC 0.008 ug/ml (H. influenzae ATCC 49247; [2]): 2 | Number of Occurrences of MIC 0.016 ug/ml (H. influenzae ATCC 49247; [2]): 1 | Number of Occurrences of MIC 0.06 ug/ml (H. influenzae ATCC 49247; [2]): 4 | Number of Occurrences of MIC 0.12 ug/ml (H. influenzae ATCC 49247; [2]): 156 | Number of Occurrences of MIC 0.25 ug/ml (H. influenzae ATCC 49247; [2]): 75 | Number of Occurrences of MIC 0.5 ug/ml (H. influenzae ATCC 49247; [2]): 2 | Number of Occurrences of MIC 0.12 ug/ml (H. influenzae ATCC 49247; [3]): 13 | Number of Occurrences of MIC 0.25 ug/ml (H. influenzae ATCC 49247; [3]): 156 | Number of Occurrences of MIC 0.5 ug/ml (H. influenzae ATCC 49247; [3]): 25 | Number of Occurrences of MIC 1 ug/ml (H. influenzae ATCC 49247; [3]): 10 | Number of Occurrences of MIC 2 ug/ml (H. influenzae ATCC 49247; [3]): 6 | Amount of the early peak (HPLC) relative to the amount in water (ratio) ([1]; tigecycline solution in aged MHB): about 35 | Amount of the early peak (HPLC) relative to the amount in water ([1]; tigecycline solution in fresh MHB): about 12 times
